Where a SMILES comes first, the peptide text is derived from it. A value given as a limit tells only on which side of the number the result lay.

The values that follow come from patent US12441768B2, “Compositions and methods for treating endometriosis” (EndoMet Biosciences, Inc., priority 2018, dated 2025).

One series has as its target T1, β-catenin (Homo sapiens, UniProt P35222).
T1 sequence (P35222 1-781): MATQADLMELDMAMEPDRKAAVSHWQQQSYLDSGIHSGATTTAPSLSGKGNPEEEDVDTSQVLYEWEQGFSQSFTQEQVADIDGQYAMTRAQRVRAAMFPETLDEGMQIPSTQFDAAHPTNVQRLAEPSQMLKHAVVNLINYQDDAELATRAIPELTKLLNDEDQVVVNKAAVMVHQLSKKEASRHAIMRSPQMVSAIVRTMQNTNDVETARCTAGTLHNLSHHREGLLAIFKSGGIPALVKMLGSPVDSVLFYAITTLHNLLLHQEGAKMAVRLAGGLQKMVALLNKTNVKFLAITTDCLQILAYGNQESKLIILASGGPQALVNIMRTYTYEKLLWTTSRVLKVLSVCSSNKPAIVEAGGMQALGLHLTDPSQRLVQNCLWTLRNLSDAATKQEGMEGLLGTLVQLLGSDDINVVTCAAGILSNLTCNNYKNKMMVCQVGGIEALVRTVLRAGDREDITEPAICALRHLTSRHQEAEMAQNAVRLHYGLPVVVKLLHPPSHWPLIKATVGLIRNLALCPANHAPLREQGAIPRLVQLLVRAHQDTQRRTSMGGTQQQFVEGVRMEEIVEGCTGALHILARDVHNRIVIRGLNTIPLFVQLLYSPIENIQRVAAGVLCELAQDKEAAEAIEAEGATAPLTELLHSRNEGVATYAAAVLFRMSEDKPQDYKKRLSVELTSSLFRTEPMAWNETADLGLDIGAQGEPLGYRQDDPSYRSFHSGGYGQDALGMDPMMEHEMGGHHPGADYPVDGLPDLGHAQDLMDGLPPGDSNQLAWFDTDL
The series is described as follows: KD50 measurement using competitive fluorescence polarization (FP) with labelled TCF4. Type of series: binding. The note with it: fluorescence polarization, β-catenin; for Kd: read-out: β-Cat FP KD. A digest of the protocol: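 Labelled TCF4 (5 nM) mixed with 100 nM β-catenin at room temperature; inhibitor added as serial dilutions from 10 nM to 30 uM. Polarization read at excitation 470 nm/emission 520 nm; binding displacement lowers polarization. Three independent runs.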
For orientation: Polarisation of emitted light reports the rotation of a fluorescent probe.

The conditions of series [1]: % Viability non-Wnt responsive cells.
Series [2] addresses Wnt-responsive promoter (TCF/LEF). The series is described as follows: Wnt-dependent luciferase reporter assay. The series is classed as cell-based, murine. Summed up:
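EC50 (uM) derived from inhibition of luminescence in Wnt3a-stimulated murine 3T3 cells expressing luciferase under a TCF/LEF promoter, with peptides added across a concentration range and vehicle as control.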

Turning to `CC[C@H](C)[C@H](NC(=O)[C@@H]1CCC(=O)NCCCC[C@H](N)C(=O)N[C@@H](Cc2c[nH]c3ccccc23)C(=O)N[C@@H](Cc2ccccc2)C(=O)N1)C(=O)N[C@@H](CO)C(=O)N[C@@H](Cc1ccccc1)C(=O)N[C@@H](Cc1c[nH]c2ccccc12)C(=O)NCC(=O)O` [compound 208] (HELM PEPTIDE1{K.W.F.E.I.S.F.W.G}$PEPTIDE1,PEPTIDE1,1:R3-4:R3$$$V2.0), on β-catenin, the “β-Cat FP Hill slope” value worked out at 0.69 and the Kd (as a rule, the constant that tells how readily two partners part at equilibrium) fell in the range of 1 to 10 µM. Also, in series [1], the viability (as a rule, a read-out of living cells in per cent, often relative to untreated cells) is 93.4%. The EC50 (in general, the concentration needed to bring the measured effect to its halfway point) in series [2] is 7.5 to 15 µM.

Consider `CC[C@H](C)[C@H](NC(=O)[C@H](CC(C)C)NC(=O)[C@H](Cc1ccccc1)NC(=O)[C@H](Cc1c[nH]c2ccccc12)NC(=O)[C@H](C)N)C(=O)N[C@@H](CO)C(=O)N[C@@H](Cc1ccccc1)C(=O)N[C@@H](Cc1c[nH]c2ccccc12)C(=O)NCC(=O)O` [compound 209] (H-AWFLISFWG-OH), for which, at β-catenin, the “β-Cat FP Hill slope” value was 0.93 and the Kd lay in the range of 0.4 to 1 µM. In addition, the viability in series [1] worked out at 91%. Besides, the EC50 in series [2] was under 7.5 µM.

As for `CC[C@H](C)[C@H](NC(=O)[C@H](CC(C)C)NC(=O)[C@H](Cc1ccccc1)NC(=O)[C@H](C)NC(=O)[C@@H](N)CCSC)C(=O)N[C@@H](CO)C(=O)N[C@@H](Cc1ccccc1)C(=O)N[C@@H](Cc1c[nH]c2ccccc12)C(=O)NCC(=O)O` [compound 210] (H-MAFLISFWG-OH), on β-catenin, the “β-Cat FP Hill slope” value was found to be 0.6 and the Kd was 1 to 10 µM. Moreover, in series [1], the viability amounted to 96.4%. The compound further returned an EC50 in series [2] of under 7.5 µM.

As for `CC[C@H](C)[C@H](NC(=O)[C@H](CC(C)C)NC(=O)[C@H](Cc1ccccc1)NC(=O)[C@H](Cc1c[nH]c2ccccc12)NC(=O)[C@@H](N)CCSC)C(=O)N[C@@H](CS)C(=O)N[C@@H](C)C(=O)N[C@@H](Cc1c[nH]c2ccccc12)C(=O)NCC(=O)O` [compound 211] (H-MWFLICAWG-OH), at β-catenin, the “β-Cat FP Hill slope” value turned out to be 0.67 and the Kd was 1 to 10 µM. The viability in series [1] is 93.9%. Moreover, the EC50 in series [2] is under 7.5 µM.

For the compound `CC[C@H](C)[C@H](NC(=O)[C@H](CC(C)C)NC(=O)[C@H](Cc1ccccc1)NC(=O)[C@H](Cc1c[nH]c2ccccc12)NC(=O)[C@@H](N)CCSC)C(=O)N[C@@H](C)C(=O)N[C@@H](C)C(=O)N[C@@H](Cc1c[nH]c2ccccc12)C(=O)NCC(=O)O` [compound 212] (H-MWFLIAAWG-OH), on β-catenin, the “β-Cat FP Hill slope” value is listed as 1.05 and the Kd fell in the range of 0.4 to 1 µM. The viability in series [1] stood at 99.3%. The same compound came in with an EC50 in series [2] of under 7.5 µM.

With `CC[C@H](C)[C@H](NC(=O)[C@H](CC(C)C)NC(=O)[C@H](Cc1ccccc1)NC(=O)[C@H](Cc1c[nH]c2ccccc12)NC(=O)[C@@H](N)CCSC)C(=O)N[C@@H](CSC)C(=O)N[C@@H](Cc1ccccc1)C(=O)N[C@@H](Cc1c[nH]c2ccccc12)C(=O)NCC(=O)O` [compound 214] (H-MWFLIC(Me)FWG-OH), on β-catenin, the “β-Cat FP Hill slope” value was determined as 0.7 and the Kd was 0.4 to 1 µM. The viability in series [1] was 102%. Also, the EC50 in series [2] is under 7.5 µM.

As for `CC[C@H](C)[C@H](NC(=O)[C@H](CC(C)C)NC(=O)[C@H](CC1CCCCC1)NC(=O)[C@H](Cc1c[nH]c2ccccc12)NC(=O)[C@H](CCSC)NC(C)=O)C(=O)N[C@@H](CO)C(=O)N[C@@H](Cc1ccccc1)C(=O)N[C@@H](Cc1c[nH]c2ccccc12)C(=O)NCC(=O)O` [compound 216] (HELM PEPTIDE1{[ac].M.W.[Cha].L.I.S.F.W.G}$$$$V2.0), at β-catenin, the “β-Cat FP Hill slope” value is on record as 1.35 and the dissociation constant Kd lay in the range of 0.4 to 1 µM. Moreover, the viability in series [1] was 100%. The EC50 in series [2] is under 7.5 µM.
